From ChEMBL document CHEMBL3352489, “6-Hydroxyquinolinium salts differing in the length of alkyl side-chain: synthesis and antimicrobial activity” (Bioorg Med Chem Lett, 2014)

What was measured:
[1] = Retention time of the compound by isocratic elution based HPLC method; format: physicochemical
[2] = tested on: Staphylococcus aureus; experiment: microbe, parasite or virus in culture; format: functional; conditions: CCM 4516/08, 24 h
Description: Antibacterial activity against Staphylococcus aureus CCM 4516/08 after 24 hrs by microdilution broth method

[3] = tested on: Staphylococcus aureus; experiment: microbe, parasite or virus in culture; format: functional; conditions: CCM 4516/08, 48 h
Description: Antibacterial activity against Staphylococcus aureus CCM 4516/08 after 48 hrs by microdilution broth method

[4] = tested on: Staphylococcus aureus; experiment: Bactericidal activity against Staphylococcus aureus CCM 4516/08 after 48 hrs by microdilution broth method; format: functional; conditions: CCM 4516/08, 48 h, read-out: MBC>99.9
[5] = tested on: Staphylococcus aureus; experiment: microbe, parasite or virus in culture; format: functional; conditions: H 5996/08, 24 h
Description: Antibacterial activity against Staphylococcus aureus H 5996/08 after 24 hrs by microdilution broth method

[6] = tested on: Staphylococcus aureus; experiment: microbe, parasite or virus in culture; format: functional; conditions: H 5996/08, 48 h
Description: Antibacterial activity against Staphylococcus aureus H 5996/08 after 48 hrs by microdilution broth method

[7] = tested on: Staphylococcus aureus; experiment: Bactericidal activity against Staphylococcus aureus H 5996/08 after 48 hrs by microdilution broth method; format: functional; conditions: H 5996/08, 48 h, read-out: MBC>99.9
[8] = tested on: Staphylococcus epidermidis; experiment: microbe, parasite or virus in culture; format: functional; conditions: H 6966/08, 24 h
Description: Antibacterial activity against Staphylococcus epidermidis H 6966/08 after 24 hrs by microdilution broth method

[9] = tested on: Staphylococcus epidermidis; experiment: microbe, parasite or virus in culture; format: functional; conditions: H 6966/08, 48 h
Description: Antibacterial activity against Staphylococcus epidermidis H 6966/08 after 48 hrs by microdilution broth method

[10] = tested on: Staphylococcus epidermidis; experiment: Bactericidal activity against Staphylococcus epidermidis H 6966/08 after 48 hrs by microdilution broth method; format: functional; conditions: H 6966/08, 48 h, read-out: MBC>99.9
[11] = tested on: Enterococcus sp.; experiment: microbe, parasite or virus in culture; format: functional; conditions: J 14365/08, 24 h
Description: Antibacterial activity against Enterococcus sp. J 14365/08 after 24 hrs by microdilution broth method

[12] = tested on: Enterococcus sp.; experiment: microbe, parasite or virus in culture; format: functional; conditions: J 14365/08, 48 h
Description: Antibacterial activity against Enterococcus sp. J 14365/08 after 48 hrs by microdilution broth method

[13] = tested on: Enterococcus sp.; experiment: Bactericidal activity against Enterococcus sp. J 14365/08 after 48 hrs by microdilution broth method; format: functional; conditions: J 14365/08, 48 h, read-out: MBC>99.9
[14] = tested on: Escherichia coli; experiment: microbe, parasite or virus in culture; format: functional; conditions: CCM 4517, 24 h
Description: Antibacterial activity against Escherichia coli CCM 4517 after 24 hrs by microdilution broth method

[15] = tested on: Escherichia coli; experiment: microbe, parasite or virus in culture; format: functional; conditions: CCM 4517, 48 h
Description: Antibacterial activity against Escherichia coli CCM 4517 after 48 hrs by microdilution broth method

[16] = tested on: Escherichia coli; experiment: Bactericidal activity against Escherichia coli CCM 4517 after 48 hrs by microdilution broth method; format: functional; conditions: CCM 4517, 48 h, read-out: MBC>99.9
[17] = tested on: Klebsiella pneumoniae; experiment: microbe, parasite or virus in culture; format: functional; conditions: D 11750/08, 24 h
Description: Antibacterial activity against Klebsiella pneumoniae D 11750/08 after 24 hrs by microdilution broth method

[18] = tested on: Klebsiella pneumoniae; experiment: microbe, parasite or virus in culture; format: functional; conditions: D 11750/08, 48 h
Description: Antibacterial activity against Klebsiella pneumoniae D 11750/08 after 48 hrs by microdilution broth method

[19] = tested on: Klebsiella pneumoniae; experiment: Bactericidal activity against Klebsiella pneumoniae D 11750/08 after 24 hrs by microdilution broth method; format: functional; conditions: D 11750/08, 24 h, read-out: MBC>99.9
[20] = tested on: Klebsiella pneumoniae; experiment: microbe, parasite or virus in culture; format: functional; conditions: J 14368/08, 24 h
Description: Antibacterial activity against Klebsiella pneumoniae J 14368/08 after 24 hrs by microdilution broth method

[21] = tested on: Klebsiella pneumoniae; experiment: microbe, parasite or virus in culture; format: functional; conditions: J 14368/08, 48 h
Description: Antibacterial activity against Klebsiella pneumoniae J 14368/08 after 48 hrs by microdilution broth method

[22] = tested on: Klebsiella pneumoniae; experiment: Bactericidal activity against Klebsiella pneumoniae J 14368/08 after 48 hrs by microdilution broth method; format: functional; conditions: J 14368/08, 48 h, read-out: MBC>99.9
[23] = tested on: Pseudomonas aeruginosa; experiment: microbe, parasite or virus in culture; format: functional; conditions: CCM 1961, 72 h
Description: Antibacterial activity against Pseudomonas aeruginosa CCM 1961 after 72 hrs by microdilution broth method

[24] = tested on: Pseudomonas aeruginosa; experiment: microbe, parasite or virus in culture; format: functional; conditions: CCM 1961, 120 h
Description: Antibacterial activity against Pseudomonas aeruginosa CCM 1961 after 120 hrs by microdilution broth method

[25] = tested on: Pseudomonas aeruginosa; experiment: Bactericidal activity against Pseudomonas aeruginosa CCM 1961 after 120 hrs by microdilution broth method; format: functional; conditions: CCM 1961, 120 h, read-out: MBC>99.9
[26] = tested on: Candida albicans; experiment: microbe, parasite or virus in culture; format: functional; conditions: ATCC 44859, 24 h
Description: Antifungal activity against Candida albicans ATCC 44859 after 24 hrs by modified standard CSLI M27-A2 method

[27] = tested on: Candida albicans; experiment: microbe, parasite or virus in culture; format: functional; conditions: ATCC 44859, 48 h
Description: Antifungal activity against Candida albicans ATCC 44859 after 48 hrs by modified standard CSLI M27-A2 method

[28] = tested on: Candida albicans; experiment: Fungicidal activity against Candida albicans ATCC 44859 after 48 hrs by modified standard CSLI M27-A2 method; format: functional; conditions: ATCC 44859, 48 h
[29] = tested on: Candida tropicalis; experiment: microbe, parasite or virus in culture; format: functional; conditions: Candida tropicalis, 156, 24 h
Description: Antifungal activity against Candida tropicalis 156 after 24 hrs by modified standard CSLI M27-A2 method

[30] = tested on: Candida tropicalis; experiment: microbe, parasite or virus in culture; format: functional; conditions: Candida tropicalis, 156, 48 h
Description: Antifungal activity against Candida tropicalis 156 after 48 hrs by modified standard CSLI M27-A2 method

[31] = tested on: Candida tropicalis; experiment: Fungicidal activity against Candida tropicalis 156 after 48 hrs by modified standard CSLI M27-A2 method; format: functional; conditions: Candida tropicalis, 156, 48 h
[32] = tested on: Pichia kudriavzevii; experiment: Antifungal activity against Candida krusei E28 after 24 hrs by modified standard CSLI M27-A2 method; format: functional; conditions: E28, 24 h
[33] = tested on: Pichia kudriavzevii; experiment: Antifungal activity against Candida krusei E28 after 48 hrs by modified standard CSLI M27-A2 method; format: functional; conditions: E28, 48 h
[34] = tested on: Pichia kudriavzevii; experiment: Fungicidal activity against Candida krusei E28 after 48 hrs by modified standard CSLI M27-A2 method; format: functional; conditions: E28, 48 h
[35] = tested on: Nakaseomyces glabratus; experiment: Antifungal activity against Candida glabrata 20/I after 24 hrs by modified standard CSLI M27-A2 method; format: functional
[36] = tested on: Nakaseomyces glabratus; experiment: Antifungal activity against Candida glabrata 20/I after 48 hrs by modified standard CSLI M27-A2 method; format: functional
[37] = tested on: Nakaseomyces glabratus; experiment: Fungicidal activity against Candida glabrata 20/I after 48 hrs by modified standard CSLI M27-A2 method; format: functional
[38] = tested on: Trichosporon asahii; experiment: microbe, parasite or virus in culture; format: functional; conditions: Trichosporon asahii, 1188, 24 h
Description: Antifungal activity against Trichosporon asahii 1188 after 24 hrs by modified standard CSLI M27-A2 method

[39] = tested on: Trichosporon asahii; experiment: microbe, parasite or virus in culture; format: functional; conditions: Trichosporon asahii, 1188, 48 h
Description: Antifungal activity against Trichosporon asahii 1188 after 48 hrs by modified standard CSLI M27-A2 method

[40] = tested on: Trichosporon asahii; experiment: Fungicidal activity against Trichosporon asahii 1188 after 48 hrs by modified standard CSLI M27-A2 method; format: functional; conditions: Trichosporon asahii, 1188, 48 h
[41] = tested on: Aspergillus fumigatus; experiment: microbe, parasite or virus in culture; format: functional; conditions: Aspergillus fumigatus, 231, 24 h
Description: Antifungal activity against Aspergillus fumigatus 231 after 24 hrs by modified standard CSLI M27-A2 method

[42] = tested on: Aspergillus fumigatus; experiment: microbe, parasite or virus in culture; format: functional; conditions: Aspergillus fumigatus, 231, 48 h
Description: Antifungal activity against Aspergillus fumigatus 231 after 48 hrs by modified standard CSLI M27-A2 method

[43] = tested on: Aspergillus fumigatus; experiment: Fungicidal activity against Aspergillus fumigatus 231 after 48 hrs by modified standard CSLI M27-A2 method; format: functional; conditions: Aspergillus fumigatus, 231, 48 h
[44] = tested on: Lichtheimia corymbifera; experiment: microbe, parasite or virus in culture; format: functional; conditions: Lichtheimia corymbifera, 272, 24 h
Description: Antifungal activity against Absidia corymbifera 272 after 24 hrs by modified standard CSLI M27-A2 method

[45] = tested on: Lichtheimia corymbifera; experiment: microbe, parasite or virus in culture; format: functional; conditions: Lichtheimia corymbifera, 272, 48 h
Description: Antifungal activity against Absidia corymbifera 272 after 48 hrs by modified standard CSLI M27-A2 method

[46] = tested on: Lichtheimia corymbifera; experiment: Fungicidal activity against Absidia corymbifera 272 after 48 hrs by modified standard CSLI M27-A2 method; format: functional; conditions: Lichtheimia corymbifera, 272, 48 h
[47] = tested on: Trichophyton mentagrophytes; experiment: microbe, parasite or virus in culture; format: functional; conditions: Trichophyton mentagrophytes, 445, 72 h
Description: Antifungal activity against Trichophyton mentagrophytes 445 after 72 hrs by modified standard CSLI M27-A2 method

[48] = tested on: Trichophyton mentagrophytes; experiment: microbe, parasite or virus in culture; format: functional; conditions: Trichophyton mentagrophytes, 445, 120 h
Description: Antifungal activity against Trichophyton mentagrophytes 445 after 120 hrs by modified standard CSLI M27-A2 method

[49] = tested on: Trichophyton mentagrophytes; experiment: Fungicidal activity against Trichophyton mentagrophytes 445 after 120 hrs by modified standard CSLI M27-A2 method; format: functional; conditions: Trichophyton mentagrophytes, 445, 120 h
[50] = Cytotoxicity against CHOK1 cells after 24 hrs by MTT assay; format: ADME, cell-based; conditions: Cricetulus griseus, CHO-K1, 24 h
[51] = Retention time of the compound by gradient elution based HPLC method; format: physicochemical

Work on CCCCCCCCCCCCCCCC[n+]1cccc2cc(O)ccc21.[Br-] yielded a Retention_time [1] of 3.3 min, an MIC95 [2] of 0.98 µM and an MIC95 [3] of 0.98 µM. For the same compound, the MBC [4] was 7.81 µM, the MIC95 [5] was 3.91 µM and the MIC95 [6] was 3.91 µM. It also gave an MBC [7] of 3.91 µM, an MIC95 [8] of 0.49 µM and an MIC95 [9] of 0.49 µM. It also gave an MBC [10] of 3.91 µM, an MIC95 [11] of 3.91 µM and an MIC95 [12] of 3.91 µM. It also gave an MBC [13] of 7.81 µM, an MIC95 [14] of 500 µM and an MIC95 [15] of 500 µM. It also gave an MBC [16] of 500 µM, an MIC95 [17] of over 500 µM and an MIC95 [18] of over 500 µM. The MBC [19] was over 500 µM, the MIC95 [20] was over 500 µM and the MIC95 [21] was over 500 µM. The MBC [22] was over 500 µM, the MIC95 [23] was over 500 µM and the MIC95 [24] was over 500 µM. It also gave an MBC [25] of over 500 µM, an MIC [26] of 7.81 µM and an MIC [27] of 7.81 µM. For the same compound, the MFC [28] was 62.5 µM, the MIC [29] was 7.81 µM and the MIC [30] was 7.81 µM. The MFC [31] was 62.5 µM, the MIC [32] was 3.91 µM and the MIC [33] was 3.91 µM. For the same compound, the MFC [34] was 125 µM, the MIC [35] was 3.91 µM and the MIC [36] was 3.91 µM. It also gave an MFC [37] of 125 µM, an MIC [38] of 7.81 µM and an MIC [39] of 7.81 µM. The MFC [40] was 62.5 µM, the MIC [41] was 15.6 µM and the MIC [42] was 15.6 µM. It also gave an MFC [43] of 250 µM, an MIC [44] of 7.81 µM and an MIC [45] of 7.81 µM. The MFC [46] was 500 µM, the MIC [47] was 3.91 µM and the MIC [48] was 3.91 µM. It also gave an MFC [49] of 3.91 µM, an IC50 [50] of 20 µM and a Retention_time [51] of 10.77 min.

CCCCCCCCCCCCCC[n+]1cccc2cc(O)ccc21.[Br-] gave a Retention_time [1] of 1.65 min, an MIC95 [2] of 1.95 µM and an MIC95 [3] of 1.95 µM. The MBC [4] was 7.81 µM, the MIC95 [5] was 7.81 µM and the MIC95 [6] was 7.81 µM. It also gave an MBC [7] of 15.6 µM, an MIC95 [8] of 0.98 µM and an MIC95 [9] of 0.98 µM. For the same compound, the MBC [10] was 3.91 µM, the MIC95 [11] was 1.95 µM and the MIC95 [12] was 1.95 µM. The MBC [13] was 15.6 µM, the MIC95 [14] was 31.2 µM and the MIC95 [15] was 31.2 µM. For the same compound, the MBC [16] was 62.5 µM, the MIC95 [17] was 62.5 µM and the MIC95 [18] was 62.5 µM. It also gave an MBC [19] of 62.5 µM, an MIC95 [20] of 31.2 µM and an MIC95 [21] of 31.2 µM. The MBC [22] was 62.5 µM, the MIC95 [23] was 125 µM and the MIC95 [24] was 250 µM. It also gave an MBC [25] of 250 µM, an MIC [26] of 7.81 µM and an MIC [27] of 15.6 µM. The MFC [28] was 15.6 µM, the MIC [29] was 15.6 µM and the MIC [30] was 15.6 µM. For the same compound, the MFC [31] was 15.6 µM, the MIC [32] was 7.81 µM and the MIC [33] was 7.81 µM. It also gave an MFC [34] of 7.81 µM, an MIC [35] of 3.91 µM and an MIC [36] of 3.91 µM. For the same compound, the MFC [37] was 15.6 µM, the MIC [38] was 15.6 µM and the MIC [39] was 31.2 µM. The MFC [40] was 31.2 µM, the MIC [41] was 15.6 µM and the MIC [42] was 31.2 µM. For the same compound, the MFC [43] was 250 µM, the MIC [44] was 31.2 µM and the MIC [45] was 31.2 µM. For the same compound, the MFC [46] was 125 µM, the MIC [47] was 7.81 µM and the MIC [48] was 7.81 µM. The MFC [49] was 15.6 µM, the IC50 [50] was 32 µM and the Retention_time [51] was 10.05 min.
